Assay results: patent US20120114636A1, “LOW MOLECULAR WEIGHT CYCLIN E (LMW-E) AS A BIOMARKER FOR PERSONALIZATION OF CANCER THERAPIES” (The Board of Regents of the University of Texas System, priority 2009, published 2012)
Where two headings read alike, the source gives them in different places.

How the values were obtained:
Assay type in all cases: cell-based, human
[1] = tested on: MCF-7/Ac1 cells; assay: Cell number of adenovirus-infected cells (LacZ, cyclin EL, T1, T2); conditions: for inhibition at 1 µM: Homo sapiens, MCF7, 1 μM letrozole, read-out: inhibition of AD-induced growth
Source text: LMW cyclin E, but not full-length cyclin E, overexpressing MCF-7/Ac1 cells partially override the letrozole inhibition of AD-induced S-phase entry and AD-induced CDK2 protein levels. Since overexpression of LMW cyclin E deregulates the G1 to S transition, the inventors interrogated the role of full-length and LMW cyclin E in letrozole response. To this end, the inventors examined the sensitivity of cyclin E overexpressing MCF-7/Ac1 cells to the growth inhibitory effect of letrozole using adenoviruses to overexpress full-length and LMW cyclin E (FIGS. 24A-24D). MCF-7/Ac1 cells were cultured in charcoal stripped serum media (CSSM) for 4 days before infecting them with 4000 m.o.i. of either LacZ, full-length cyclin E (cyclin EL) or LMW cyclin E (cyclin E-T1 and cyclin E-T2). Twenty-four hours later, cells were left either untreated, treated with 25 nM AD alone, or treated with 25 nM AD plus 1 μM letrozole for an additional 3 days (FIGS. 24A-24B). Following the treatment, cells were enumerated or subjected to flow cytometry analysis.
MCF-7/Ac1 cells were cultured in IMEM with 10% charcoal-stripped serum medium (CSSM) without phenol red and with 600 μg/ml of G418 for 4 days before plating. Triplicate wells of 6-well plates were then infected with the indicated adenoviruses (at 4000 m.o.i.) 24 hours before drug treatment. Cells were then left untreated (E2W, estrogen withdrawal) or treated with 25 nM AD (AD) or treated with 25 nM AD and 1 μM letrozole (AD+Let) and collected 3 days later for cell number. Cell growth is expressed as the percentage of the cells compared with the control cells (25 nM AD treated cells). […] MCF-7/Ac1 cells were treated as described in A, and collected for flow cytometry analysis. Histograms represent the S-phase fraction expressed as the percentage of the cells in S-phase compared with the control cells (25 nM AD treated cells). […] The same cell lysates as in A and B were subjected to western blot analysis (50 μg of protein) with cyclin E and CDK2 antibodies. The bar graph represents the densitometric values of the phosphorylated CDK2 bands. […] Left, MCF-7/Ac1 cells were cultured in IMEM with 10% charcoal-stripped serum medium (CSSM) without phenol red and with 600 μg/ml of G418 for 4 days before plating. Cells were then infected with the indicated adenoviruses (at 4000 m.o.i.) 24 hours before drug treatment. Cells were then treated with 25 nM AD and 1 μM letrozole and collected 3 days later for cell number. […] Columns, mean of two to three experiments, each in triplicates; bars, S.D.
To directly address this question, MCF-7/Ac1 cells were cultured in charcoal stripped serum media (CSSM) for 4 days before adding medium with no virus or with 4000 m.o.i. of either LacZ, or LMW cyclin E (cyclin E-T1) adenoviruses. 24 hours later, cells were left untreated, treated with 25 nM AD alone, or treated with 25 nM AD plus 1 μM letrozole for 3 days (FIG. 24D). The AD-induced growth of MCF-7/Ac1 cells was inhibited by letrozole by 51% in uninfected cells and by 58% in LacZ infected cells while the growth of cyclin E-T1 infected cells was inhibited by only 20% (FIG. 24D, left).

[2] = tested on: cyclin E-associated kinase activity in MCF-7/Ac1 cells; assay: Cyclin E-associated kinase assay (histone H1); conditions: with 25 nM AD, 3 days
Method: Immunoprecipitation and Immunoblotting. Two hundred fifty μg of cell extracts were used per immunoprecipitation with polyclonal antibody to cyclin E or polyclonal antibody to CDK2, coupled to protein A beads. After being washed, the immunoprecipitates were subjected to electrophoresis in 13% gels, transferred to Immobolin P, blocked, and incubated with the indicated antibodies as already described.
MCF-7/Ac1 cells were treated with the indicated concentrations of letrozole and AD for 3 days. Cyclin E kinase assays were performed by immunoprecipitating equal amounts of cell lysate (250 μg) with monoclonal antibodies to cyclin E coupled to protein A beads, using histone H1 as substrate. […] The same cell lysates were subjected to western blot analysis (50 μg of protein) with the indicated antibodies. […] The same cell lysates were first immunoprecipitated with cyclin E followed by western blot for p21 and p27. […] The same cell lysates were first immunoprecipitated with CDK2 followed by western blot for p21 and p27. The levels of proteins were measured by densitometric scanning of the corresponding bands and normalized using actin values. The values indicated at the bottom were compared to the values obtained with untreated cells.

[3] = tested on: CDK2 protein in MCF-7/Ac1 cells; assay: Western blot of CDK2 protein levels in adenovirus-infected cells; conditions: letrozole
Method: Western blot analysis. Cell lysates were prepared and subjected to western blot analysis as described previously (Akli et al., 2004). Briefly, 50 μg of protein were subjected to electrophoresis on SDS-PAGE and transferred to Immobilon P overnight at 4° C. at […] constant voltage. The blots were blocked overnight at 4° C. in BLOTTO [5% nonfat dried milk in 20 mM Tris, 137 mM NaCl, and 0.05% Tween (pH 7.6)]. After being washed, the blots were incubated in primary antibodies for 3 h. Primary antibodies used were cyclin E (HE-12; Santa Cruz Biotechnology), p21 (0P64; Oncogene Research Products, Boston, Mass.), p27 (K25020; BD Biosciences-Transduction Laboratories, Lexington, Ky.), cyclin-dependent kinase 2 (CDK2; Transduction Laboratories), and actin (Chemicon International, Inc., Temecula, Calif.). Blots were then incubated with goat anti-mouse or anti-rabbit immunoglobulin-horseradish peroxidase conjugate at a dilution of 1:5000 in BLOTTO for 1 h and finally washed and developed by using the Renaissance chemiluminescence system as directed by the manufacturer (Perkin-Elmer Life Sciences, Inc., Boston, Mass.). Western blots were quantitated by densitometric analysis using IPLab Gel software (Scientific Image Processing, Vienna, Va.). Densitometric values of actin were used to standardize for equal protein loading. These values were introduced into the software Graph-Pad Prism version 4.0 (GraphPad Software, Inc., San Diego, Calif.) for statistical analysis.
MCF-7/Ac1 cells were cultured in IMEM with 10% charcoal-stripped serum medium (CSSM) without phenol red and with 600 μg/ml of G418 for 4 days before plating. […] Cells were then infected with the indicated adenoviruses (at 4000 m.o.i.) 24 hours before drug treatment.

For N#Cc1ccc(C(c2ccc(C#N)cc2)n2cncn2)cc1 [letrozole], the “inhibition of AD-induced growth” value ([1]; 1 μM letrozole, cyclin EL, T1, and T2 infected cells, FIG. 24A) was “no significant growth inhibition”, the inhibition at 1 µM ([1]; LacZ infected cells, FIG. 24A) was 56.1% and the inhibition at 1 µM ([1]; LacZ infected cells, FIG. 24D) was 58%. For the same molecule, the inhibition at 1 µM ([1]; cyclin E-T1 infected cells, FIG. 24D) was 20%, the inhibition at 1 µM ([1]; uninfected cells, FIG. 24A) was 40.8% and the inhibition at 1 µM ([1]; uninfected cells, FIG. 24D) was 51%. For the same molecule, the “concentration that blocked the AD-induced increase in cyclin E-associated kinase activity” value [2] was no more than 0.125 µM, the CDK2 protein levels ([3]; LMW cyclin E (T1, T2) overexpressing cells) was “did not drop following letrozole treatment” and the “total CDK2 protein levels, percent of the level in untreated, uninfected cells” value ([3]; cyclin EL overexpressing cells) was 50%. For the same molecule, the “total CDK2 protein levels, percent of the level in uninfected cells” value ([3]; uninfected and LacZ infected cells) was 10%.
